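Interpolation was linear, between the two tested concentrations surrounding the appropriate level; five concentrations were tested over 48 hours in 96-well plates. GI50: concentration for 50% inhibition of growth.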 Active and inactive are the calls of the source. Rule as the data show it: active = GI50 up to about 1.1 µM and inactive = higher.
How the values were obtained:
Assay in all cases: NCI tumour cell line growth inhibition, 48 h
[1] = tested on: DMS-273
[2] = tested on: SK-MEL-2
[3] = tested on: 786-0
[4] = tested on: SK-MEL-5
[5] = tested on: HCC 2998
[6] = tested on: MOLT-4
[7] = tested on: CAKI-1
[8] = tested on: HOP-92
[9] = tested on: OVCAR-4
[10] = tested on: SN12C
[11] = tested on: NCI-H522
[12] = tested on: SW-620
[13] = tested on: EKVX
[14] = tested on: UACC-62
[15] = tested on: NCI-H23
[16] = tested on: HCT-116
[17] = tested on: HL-60

Measured: GI50

CCOC(=O)C(=O)Nc1nc2ccc(C)cc2s1
inactive: [1] > 100 µM | [2] > 100 µM | [3] 27.9 µM | [4] > 100 µM | [5] > 100 µM | [6] > 100 µM | [7] > 100 µM | [8] > 100 µM | [9] > 100 µM | [10] > 100 µM | [11] > 100 µM | [12] > 100 µM | [13] > 100 µM | [14] > 100 µM | [15] > 100 µM | [16] > 100 µM

COc1ccc(C(Cc2cc(OC)c(OC)c(OC)c2)C(=O)O)cc1 (stereo unspecified)
inactive: [1] 52.5 µM | [2] 52 µM | [3] 71.8 µM | [4] 25.9 µM | [5] > 100 µM | [7] 64.1 µM | [9] > 100 µM | [10] > 100 µM | [12] 46.9 µM | [13] 63 µM | [14] 31.2 µM | [15] 97.9 µM | [16] 41.5 µM

Cc1cc(Br)ccc1NC1=CC(=O)C(=O)c2ccccc21
inactive: [1] 31.4 µM | [2] 23.6 µM | [3] 38.5 µM | [4] 20 µM | [5] 62.1 µM | [6] 39.4 µM | [7] 28.1 µM | [17] 13.6 µM | [9] 9.08 µM | [10] 60.1 µM | [11] 30.8 µM | [12] 29.9 µM | [13] > 100 µM | [14] 20 µM | [15] 10.9 µM | [16] 52.7 µM

CC(=O)Nc1ccc(C2[C@H]3C(=O)N(c4ccc(Cc5ccc(N6C(=O)[C@@H]7ON(c8ccccc8)C(c8ccc(NC(C)=O)cc8)[C@@H]7C6=O)cc5)cc4)C(=O)[C@H]3ON2c2ccccc2)cc1 (stereo partly specified)
inactive: [1] > 100 µM | [2] > 100 µM | [3] > 100 µM | [4] 32.6 µM | [5] > 100 µM | [6] > 100 µM | [7] 98.2 µM | [17] > 100 µM | [9] > 100 µM | [10] > 100 µM | [11] > 100 µM | [12] > 100 µM | [13] > 100 µM | [14] 70.8 µM | [15] > 100 µM | [16] > 100 µM

CN1CCc2ccccc2C(C(=O)c2ccc3c(c2)OCO3)C1=O (stereo unspecified)
inactive: [1] > 100 µM | [2] > 100 µM | [3] > 100 µM | [4] 53.3 µM | [6] > 100 µM | [7] > 100 µM | [17] > 100 µM | [8] > 100 µM | [9] 89.3 µM | [10] > 100 µM | [11] > 100 µM | [12] > 100 µM | [14] > 100 µM | [15] 96.2 µM | [16] > 100 µM

COc1ccc(S(=O)(=O)N/N=C/CN2C(=O)c3ccccc3C2=O)cc1
inactive: [1] > 100 µM | [2] > 100 µM | [3] > 100 µM | [4] > 100 µM | [5] > 100 µM | [6] > 100 µM | [7] > 100 µM | [17] > 100 µM | [9] > 100 µM | [10] > 100 µM | [11] > 100 µM | [12] > 100 µM | [13] > 100 µM | [14] > 100 µM | [15] > 100 µM

O=C1c2ccccc2N2OC3(N4CCCC4)CCCCC3C12c1ccccc1 (stereo unspecified)
inactive: [1] 17 µM | [3] 17.7 µM | [4] 15.1 µM | [5] 53 µM | [6] 35.7 µM | [17] 19.1 µM | [8] 16.1 µM | [9] 14.5 µM | [10] 16.9 µM | [11] 14.9 µM | [12] 17.7 µM | [13] 69.8 µM | [14] 16.4 µM | [15] 20.1 µM | [16] 14.4 µM

O=C1C=C(Nc2ccccc2C(=O)c2ccccc2)c2ccccc2C1=O
inactive: [1] > 100 µM | [2] > 100 µM | [3] > 100 µM | [5] > 100 µM | [7] > 100 µM | [8] 4.06 µM | [9] 89.3 µM | [10] 42.8 µM | [11] 25 µM | [12] 87.9 µM | [13] > 100 µM | [14] 8.04 µM | [15] > 100 µM | [16] > 100 µM

CCOC(=O)NNC(=O)NC12CC3CC(CC(C3)C1)C2
inactive: [1] > 100 µM | [2] > 100 µM | [3] > 100 µM | [4] > 100 µM | [5] > 100 µM | [6] > 100 µM | [7] > 100 µM | [8] > 100 µM | [9] > 100 µM | [10] > 100 µM | [11] > 100 µM | [12] > 100 µM | [13] > 100 µM | [14] > 100 µM | [15] > 100 µM | [16] > 100 µM
